According to US12624044B2, “SMARCA degraders and uses thereof” (Kymera Therapeutics, Inc., priority 2019, dated 2026):

Molecular target: SMARCA2 (Homo sapiens, UniProt P51531)
Test: MSD SMARCA2 degradation in NCI-H1299 cell line (24 h)
Assay type: cell-based
Set-up: HC: NCI-H1299 cells treated with DMSO; host or cells: NCI-H1299
Settings: for Dmax: NCI-H1299, NCI-H1299 cells; for DC50: NCI-H1299 cells, read-out: SMARCA2 MSD H1299 degradation 24 h: External Abs-DC50
Summary of the method: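 SMARCA2 measured by MSD electrochemiluminescence (primary 0.3 ug/ml, secondary 1 ug/ml) on lysates from NCI-H1299 cells exposed to compounds for 24 h across nine 3-fold dilutions. Signal scaled from A2780 cells (no SMARCA2) to DMSO-treated H1299 controls, and maximal degradation after 24 h reported in letter categories.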

Sequence of SMARCA2 (P51531 whole entry): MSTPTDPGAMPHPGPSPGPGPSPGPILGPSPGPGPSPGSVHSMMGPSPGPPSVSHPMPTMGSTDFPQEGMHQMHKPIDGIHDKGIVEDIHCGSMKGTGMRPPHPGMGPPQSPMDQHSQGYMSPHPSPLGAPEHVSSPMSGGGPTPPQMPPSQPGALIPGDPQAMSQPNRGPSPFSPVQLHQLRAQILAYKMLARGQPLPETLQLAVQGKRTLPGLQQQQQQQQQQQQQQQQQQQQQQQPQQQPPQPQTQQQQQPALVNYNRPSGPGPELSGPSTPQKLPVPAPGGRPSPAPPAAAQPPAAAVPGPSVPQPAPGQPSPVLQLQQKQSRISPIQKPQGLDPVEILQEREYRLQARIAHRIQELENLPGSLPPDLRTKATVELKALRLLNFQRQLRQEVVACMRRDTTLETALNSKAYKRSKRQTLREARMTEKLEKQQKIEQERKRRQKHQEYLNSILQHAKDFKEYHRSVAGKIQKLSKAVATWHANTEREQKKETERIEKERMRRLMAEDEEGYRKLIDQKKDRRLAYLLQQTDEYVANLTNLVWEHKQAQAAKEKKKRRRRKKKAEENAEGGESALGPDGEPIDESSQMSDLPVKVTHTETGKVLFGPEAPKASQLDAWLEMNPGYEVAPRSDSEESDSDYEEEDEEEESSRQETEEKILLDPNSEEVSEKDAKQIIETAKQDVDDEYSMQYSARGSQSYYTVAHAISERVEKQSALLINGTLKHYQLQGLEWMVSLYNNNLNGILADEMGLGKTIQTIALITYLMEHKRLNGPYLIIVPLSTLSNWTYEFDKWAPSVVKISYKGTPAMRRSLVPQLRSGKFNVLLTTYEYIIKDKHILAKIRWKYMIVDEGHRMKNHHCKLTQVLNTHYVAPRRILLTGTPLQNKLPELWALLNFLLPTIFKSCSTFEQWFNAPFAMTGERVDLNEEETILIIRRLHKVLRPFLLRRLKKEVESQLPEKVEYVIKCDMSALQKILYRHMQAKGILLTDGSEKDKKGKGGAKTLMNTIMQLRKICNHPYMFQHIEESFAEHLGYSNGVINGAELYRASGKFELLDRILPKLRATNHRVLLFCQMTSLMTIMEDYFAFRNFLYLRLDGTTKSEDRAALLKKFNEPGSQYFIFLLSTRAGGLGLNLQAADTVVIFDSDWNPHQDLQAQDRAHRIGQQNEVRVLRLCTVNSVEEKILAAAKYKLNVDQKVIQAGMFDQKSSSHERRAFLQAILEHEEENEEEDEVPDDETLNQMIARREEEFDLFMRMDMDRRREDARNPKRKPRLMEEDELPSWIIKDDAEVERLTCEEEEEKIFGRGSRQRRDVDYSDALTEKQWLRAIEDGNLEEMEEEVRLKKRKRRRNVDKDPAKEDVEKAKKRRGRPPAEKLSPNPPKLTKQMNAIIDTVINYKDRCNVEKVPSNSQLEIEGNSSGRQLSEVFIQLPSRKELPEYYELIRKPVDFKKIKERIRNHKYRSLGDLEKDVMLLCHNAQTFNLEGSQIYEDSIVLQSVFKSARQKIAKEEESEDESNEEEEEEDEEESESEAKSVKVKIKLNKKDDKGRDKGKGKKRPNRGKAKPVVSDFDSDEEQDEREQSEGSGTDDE

`O=C1CCC(N2C(=O)c3cccc(OCCCCc4cn(CCCc5cccc(N6C[C@H]7C[C@@H]6CN7/C=C/C(=O)c6ccccc6O)n5)nn4)c3C2=O)C(=O)N1` (stereo partly drawn) [I-71, 2-(2,6-dioxopiperidin-3-yl)-4-(4-(1-(3-(6-((1R,4R)-5-((E)-3-(2-hydroxyphenyl)-3-oxoprop-1-en-1-yl)-2,5-diazabicyclo[2.2.1]heptan-2-yl)pyridin-2-yl)propyl)-1H-1,2,3-triazol-4-yl)butoxy)isoindoline-1,3-dione] gave a Dmax of less than 50% and a DC50 greater than 1000 nM.
In the case of `Cn1c(=O)n(C2CCC(=O)NC2=O)c2ccc(CNCCc3cn(Cc4cccc(N5C[C@H]6C[C@@H]5CN6/C=C/C(=O)c5ccccc5O)n4)nn3)cc21` (some centres unmarked) [I-73], the Dmax is reported as less than 50% and the DC50 is reported as greater than 1000 nM.
Molecule `Cn1c(=O)n(C2CCC(=O)NC2=O)c2ccc(CNCCCc3cn(Cc4cccc(N5C[C@H]6C[C@@H]5CN6/C=C/C(=O)c5ccccc5O)n4)nn3)cc21` (some centres unmarked) [I-74] has a Dmax of less than 50% and a DC50 greater than 1000 nM.
`Cn1c(=O)n(C2CCC(=O)NC2=O)c2ccc(CNCCCCc3cn(Cc4cccc(N5C[C@H]6C[C@@H]5CN6/C=C/C(=O)c5ccccc5O)n4)nn3)cc21` (some centres unmarked) [I-75] was tested, and the Dmax was less than 50% and the DC50 was greater than 1000 nM.
Work on `Cn1c(=O)n(C2CCC(=O)NC2=O)c2ccc(CNCCCCCc3cn(Cc4cccc(N5C[C@H]6C[C@@H]5CN6/C=C/C(=O)c5ccccc5O)n4)nn3)cc21` (some centres unmarked) [I-76] yielded a Dmax of less than 50% and a DC50 greater than 1000 nM.
`Cn1c(=O)n(C2CCC(=O)NC2=O)c2ccc(CNCCCCCCc3cn(Cc4cccc(N5C[C@H]6C[C@@H]5CN6/C=C/C(=O)c5ccccc5O)n4)nn3)cc21` (some centres unmarked) [I-77] showed a Dmax of less than 50% and a DC50 greater than 1000 nM.
In the case of `Cn1c(=O)n(C2CCC(=O)NC2=O)c2cccc(CNCCc3cn(Cc4cccc(N5C[C@H]6C[C@@H]5CN6/C=C/C(=O)c5ccccc5O)n4)nn3)c21` (stereo partly drawn) [I-78, 3-[4-[[2-[1-[[6-[(1R,4R)-5-[(E)-3-(2-hydroxyphenyl)-3-oxo-prop-1-enyl]-2,5-diazabicyclo[2.2.1]heptan-2-yl]-2-pyridyl]methyl]triazol-4-yl]ethylamino]methyl]-3-methyl-2-oxo-benzimidazol-1-yl]piperidine-2,6-dione], the Dmax is reported as less than 50% and the DC50 is reported as greater than 1000 nM.
`Cn1c(=O)n(C2CCC(=O)NC2=O)c2cccc(CNCCCc3cn(Cc4cccc(N5C[C@H]6C[C@@H]5CN6/C=C/C(=O)c5ccccc5O)n4)nn3)c21` (some centres unmarked) [I-79] was tested, and the Dmax was less than 50% and the DC50 was greater than 1000 nM.
`Cn1c(=O)n(C2CCC(=O)NC2=O)c2cccc(CNCCCCc3cn(Cc4cccc(N5C[C@H]6C[C@@H]5CN6/C=C/C(=O)c5ccccc5O)n4)nn3)c21` (some centres unmarked) [I-80] showed a Dmax of less than 50% and a DC50 greater than 1000 nM.
`Cn1c(=O)n(C2CCC(=O)NC2=O)c2cccc(CNCCCCCc3cn(Cc4cccc(N5C[C@H]6C[C@@H]5CN6/C=C/C(=O)c5ccccc5O)n4)nn3)c21` (some centres unmarked) [I-81] was tested, and the Dmax was less than 50% and the DC50 was greater than 1000 nM.
For `Cn1c(=O)n(C2CCC(=O)NC2=O)c2cccc(CNCCCCCCc3cn(Cc4cccc(N5C[C@H]6C[C@@H]5CN6/C=C/C(=O)c5ccccc5O)n4)nn3)c21` (some centres unmarked) [I-82], the Dmax was less than 50% and the DC50 was greater than 1000 nM.
With `Cn1c(=O)n(C2CCC(=O)NC2=O)c2ccc(CCCOc3ccc(CN4CCN(c5cc(-c6ccccc6O)nnc5N)CC4)cc3)cc21` (centres unmarked) [I-83, 3-(5-(3-(4-((4-(3-amino-6-(2-hydroxyphenyl)pyridazin-4-yl)piperazin-1-yl)methyl)phenoxy)propyl)-3-methyl-2-oxo-2,3-dihydro-1H-benzo[d]imidazol-1-yl)piperidine-2,6-dione] the Dmax was less than 50% and the DC50 was greater than 1000 nM.
`Cn1c(=O)n(C2CCC(=O)NC2=O)c2ccc(CCCCOc3ccc(CN4CCN(c5cc(-c6ccccc6O)nnc5N)CC4)cc3)cc21` (centres unmarked) [I-84] gave a Dmax of less than 50% and a DC50 greater than 1000 nM.
`Cn1c(=O)n(C2CCC(=O)NC2=O)c2ccc(CCCCCOc3ccc(CN4CCN(c5cc(-c6ccccc6O)nnc5N)CC4)cc3)cc21` (centres unmarked) [I-85] was tested, and the Dmax was less than 50% and the DC50 was greater than 1000 nM.
`Cn1c(=O)n(C2CCC(=O)NC2=O)c2ccc(CCCCCCOc3ccc(CN4CCN(c5cc(-c6ccccc6O)nnc5N)CC4)cc3)cc21` (centres unmarked) [I-86] was tested, and the Dmax was less than 50% and the DC50 was greater than 1000 nM.
For `Cn1c(=O)n(C2CCC(=O)NC2=O)c2ccc(CCCCCCCOc3ccc(CN4CCN(c5cc(-c6ccccc6O)nnc5N)CC4)cc3)cc21` (centres unmarked) [I-87], the Dmax was less than 50% and the DC50 was greater than 1000 nM.
In the case of `Cn1c(=O)n(C2CCC(=O)NC2=O)c2ccc(CCCCCCCc3cnc(N4C5CCC4CN(c4cc(-c6ccccc6O)nnc4N)C5)nc3)cc21` (centres unmarked) [I-88], the Dmax is reported as greater than 90% and the DC50 is reported as less than 100 nM.
Work on `Cn1c(=O)n(C2CCC(=O)NC2=O)c2ccc(CCCCCCCCc3cnc(N4C5CCC4CN(c4cc(-c6ccccc6O)nnc4N)C5)nc3)cc21` (centres unmarked) [I-89, 3-[5-[8-[2-[3-[3-amino-6-(2-hydroxyphenyl)pyridazin-4-yl]-3,8-diazabicyclo [3.2.1]octan-8-yl]pyrimidin-5-yl]octyl]-3-methyl-2-oxo-benzimidazol-1-yl]piperidine-2,6-dione] yielded a Dmax greater than 90% and a DC50 of less than 100 nM.
For `Cn1c(=O)n(C2CCC(=O)NC2=O)c2cccc(CCCOc3ccc(CN4CCN(c5cc(-c6ccccc6O)nnc5N)CC4)cc3)c21` (centres unmarked) [I-90], the Dmax was 50 to 70% and the DC50 was greater than 1000 nM.
`Cn1c(=O)n(C2CCC(=O)NC2=O)c2cccc(CCCCOc3ccc(CN4CCN(c5cc(-c6ccccc6O)nnc5N)CC4)cc3)c21` (centres unmarked) [I-91] was tested, and the Dmax was less than 50% and the DC50 was greater than 1000 nM.
In the case of `Cn1c(=O)n(C2CCC(=O)NC2=O)c2cccc(CCCCCOc3ccc(CN4CCN(c5cc(-c6ccccc6O)nnc5N)CC4)cc3)c21` (centres unmarked) [I-92], the Dmax is reported as 50 to 70% and the DC50 is reported as 100 to 500 nM.
`Cn1c(=O)n(C2CCC(=O)NC2=O)c2cccc(CCCCCCOc3ccc(CN4CCN(c5cc(-c6ccccc6O)nnc5N)CC4)cc3)c21` (centres unmarked) [I-93] was tested, and the Dmax was less than 50% and the DC50 was greater than 1000 nM.
`Cn1c(=O)n(C2CCC(=O)NC2=O)c2cccc(CCCCCCCOc3ccc(CN4CCN(c5cc(-c6ccccc6O)nnc5N)CC4)cc3)c21` (centres unmarked) [I-94] was tested, and the Dmax was 50 to 70% and the DC50 was greater than 1000 nM.
Work on `Cn1c(=O)n(C2CCC(=O)NC2=O)c2cccc(CCCOc3cccc(CN4CCN(c5cc(-c6ccccc6O)nnc5N)CC4)c3)c21` (centres unmarked) [I-95] yielded a Dmax of less than 50% and a DC50 greater than 1000 nM.
Molecule `Cn1c(=O)n(C2CCC(=O)NC2=O)c2cccc(CCCCOc3cccc(CN4CCN(c5cc(-c6ccccc6O)nnc5N)CC4)c3)c21` (centres unmarked) [I-96] has a Dmax of 50 to 70% and a DC50 of 100 to 500 nM.
For `Cn1c(=O)n(C2CCC(=O)NC2=O)c2cccc(CCCCCOc3cccc(CN4CCN(c5cc(-c6ccccc6O)nnc5N)CC4)c3)c21` (centres unmarked) [I-97], the Dmax was 50 to 70% and the DC50 was 100 to 500 nM.
With `Cn1c(=O)n(C2CCC(=O)NC2=O)c2cccc(CCCCCCOc3cccc(CN4CCN(c5cc(-c6ccccc6O)nnc5N)CC4)c3)c21` (centres unmarked) [I-98] the Dmax was 50 to 70% and the DC50 was 501 to 1000 nM.
Molecule `Cn1c(=O)n(C2CCC(=O)NC2=O)c2cccc(CCCCCCCOc3cccc(CN4CCN(c5cc(-c6ccccc6O)nnc5N)CC4)c3)c21` (centres unmarked) [I-99] has a Dmax of less than 50% and a DC50 greater than 1000 nM.
`Cn1c(=O)n(C2CCC(=O)NC2=O)c2ccc(CCCOc3cccc(CN4CCN(c5cc(-c6ccccc6O)nnc5N)CC4)c3)cc21` (centres unmarked) [I-100] gave a Dmax of less than 50% and a DC50 greater than 1000 nM.
`Cn1c(=O)n(C2CCC(=O)NC2=O)c2ccc(CCCCOc3cccc(CN4CCN(c5cc(-c6ccccc6O)nnc5N)CC4)c3)cc21` (centres unmarked) [I-101] gave a Dmax of less than 50% and a DC50 greater than 1000 nM.
`Cn1c(=O)n(C2CCC(=O)NC2=O)c2ccc(CCCCCOc3cccc(CN4CCN(c5cc(-c6ccccc6O)nnc5N)CC4)c3)cc21` (centres unmarked) [I-102] was tested, and the Dmax was less than 50% and the DC50 was greater than 1000 nM.
`Cn1c(=O)n(C2CCC(=O)NC2=O)c2ccc(CCCCCCOc3cccc(CN4CCN(c5cc(-c6ccccc6O)nnc5N)CC4)c3)cc21` (centres unmarked) [I-103] was tested, and the Dmax was less than 50% and the DC50 was greater than 1000 nM.
In the case of `Cn1c(=O)n(C2CCC(=O)NC2=O)c2ccc(CCCCCCCOc3cccc(CN4CCN(c5cc(-c6ccccc6O)nnc5N)CC4)c3)cc21` (centres unmarked) [I-104], the Dmax is reported as 70 to 90% and the DC50 is reported as 100 to 500 nM.
For `Cn1c(=O)n(C2CCC(=O)NC2=O)c2ccc(CCCOCCN3CCN(Cc4ccc(-c5cc(-c6ccccc6O)nnc5N)cc4)CC3)cc21` (centres unmarked) [I-105, 3-[5-[3-[2-[4-[[4-[3-amino-6-(2-hydroxyphenyl)pyridazin-4-yl]phenyl]methyl]piperazin-1-yl]ethoxy]propyl]-3-methyl-2-oxo-benzimidazol-1-yl]piperidine-2,6-dione], the Dmax was less than 50% and the DC50 was greater than 1000 nM.
In the case of `Cn1c(=O)n(C2CCC(=O)NC2=O)c2cccc(CCCOCCN3CCN(Cc4ccc(-c5cc(-c6ccccc6O)nnc5N)cc4)CC3)c21` (centres unmarked) [I-106], the Dmax is reported as 50 to 70% and the DC50 is reported as 100 to 500 nM.
`Cn1c(=O)n(C2CCC(=O)NC2=O)c2cccc(CCCOCCOCCN3CCN(Cc4ccc(-c5cc(-c6ccccc6O)nnc5N)cc4)CC3)c21` (centres unmarked) [I-107] was tested, and the Dmax was 50 to 70% and the DC50 was 100 to 500 nM.
`Cn1c(=O)n(C2CCC(=O)NC2=O)c2cccc(CCCOCCOCCOCCN3CCN(Cc4ccc(-c5cc(-c6ccccc6O)nnc5N)cc4)CC3)c21` (centres unmarked) [I-108] showed a Dmax of less than 50% and a DC50 greater than 1000 nM.
Work on `CN(Cc1ccc(N2CCN(c3cc(-c4ccccc4O)nnc3N)CC2)cc1)C1CCN(Cc2cccc3c2n(C)c(=O)n3C2CCC(=O)NC2=O)CC1` (centres unmarked) [I-109] yielded a Dmax of 70 to 90% and a DC50 of 100 to 500 nM.
With `CN(CCCN1CCC(c2cccc3c2n(C)c(=O)n3C2CCC(=O)NC2=O)CC1)Cc1ccc(N2CCN(c3cc(-c4ccccc4O)nnc3N)CC2)cc1` (centres unmarked) [I-110] the Dmax was greater than 90% and the DC50 was 100 to 500 nM.
In the case of `CN(CC[C@@H]1CN(CCCc2cccc3c2n(C)c(=O)n3C2CCC(=O)NC2=O)CCO1)Cc1ccc(N2CCN(c3cc(-c4ccccc4O)nnc3N)CC2)cc1` (some centres unmarked) [I-111], the Dmax is reported as 70 to 90% and the DC50 is reported as 100 to 500 nM.
`CN(CCCOCCCc1cccc2c1n(C)c(=O)n2C1CCC(=O)NC1=O)Cc1ccc(N2CCN(c3cc(-c4ccccc4O)nnc3N)CC2)cc1` (centres unmarked) [I-112] gave a Dmax of less than 50% and a DC50 greater than 1000 nM.
Molecule `CN1C(=O)CCC(n2c(=O)n(C)c3c(CCCOCCOCCNCc4ccc(N5CCN(c6cc(-c7ccccc7O)nnc6N)CC5)cc4)cccc32)C1=O` (centres unmarked) [I-113] has a Dmax of less than 50% and a DC50 greater than 1000 nM.
For `CN(Cc1ccc(N2CCN(c3cc(-c4ccccc4O)nnc3N)CC2)cc1)CC1CCN(c2ccc3c(c2)n(C)c(=O)n3C2CCC(=O)NC2=O)CC1` (centres unmarked) [I-114], the Dmax was 50 to 70% and the DC50 was less than 100 nM.
